Values of other authors, collected in patent US20060246153A1, “Herbal compositions for the teatment and prevention of prostate disorders” (priority 2003, published 2006).

System: localised prostate adenocarcinoma
Details: 28 mg a day in the diet for three weeks

In the case of `CC(C)=CCC/C(C)=C/C=C/C(C)=C/C=C/C(C)=C/C=C/C=C(C)/C=C/C=C(C)/C=C/C=C(\C)CCC=C(C)C` [lycopene], the “oxidative damage to the DNA of the post-operative biopsy tissue” value is listed as “greatly reduced” and the “plasma levels of PSA (prostate-specific antigen)” value is listed as “reduced”.
